Molecules are shown by their SMILES. Where “and” joins values, the source holds several entries; their conditions need not be identical. Identical values can stand only once. Toxic doses and inconclusive results are not listed.

For 20 molecules, T/C results are on record in PubChem BioAssay AID328 (DTP/NCI, 2004).

The test system of this assay is BDF1 mice, P388 leukemia ip, median survival T/C. The assay can be described thus: NCI In Vivo Anticancer Drug Screen. Data for tumor model P388 Leukemia (intraperitoneal) in B6D2F1 (BDF1) mice. To be noted: endpoint: median survival time, higher = longer survival. An outline of the steps: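 Each value expresses how treatment altered survival: treated-mouse outcome over vehicle-mouse outcome, both groups bearing the transplanted tumour.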

[1] abbreviates: dose: 100.0 mg/kg/injection, schedule: Q04DX003 (ip), vehicle: saline with Tween-80.
The mark [2] stands for this setting: dose: 100.0 mg/kg/injection, schedule: Q04DX003 (ip), vehicle: saline.
Setting [3] is: dose: 200.0 mg/kg/injection, schedule: Q04DX003 (ip), vehicle: saline with Tween-80.
Setting [4] is: dose: 200.0 mg/kg/injection, schedule: Q04DX003 (ip), vehicle: saline.
Where [5] appears, read: dose: 50.0 mg/kg/injection, schedule: Q01DX009 (ip), vehicle: saline with Tween-80.
Setting [6] is: dose: 100.0 mg/kg/injection, schedule: Q01DX009 (ip), vehicle: saline with Tween-80.
The mark [7] stands for this setting: dose: 400.0 mg/kg/injection, schedule: Q04DX003 (ip), vehicle: saline with Tween-80.
Where [8] appears, read: dose: 100.0 mg/kg/injection, schedule: Q01DX001 (ip), vehicle: Klucel (hydroxypropylcellulose) (HPC).
The mark [9] stands for this setting: dose: 200.0 mg/kg/injection, schedule: Q01DX001 (ip), vehicle: Klucel (hydroxypropylcellulose) (HPC).
Setting [10] is: dose: 400.0 mg/kg/injection, schedule: Q01DX001 (ip), vehicle: Klucel (hydroxypropylcellulose) (HPC).
Setting [11] is: dose: 200.0 mg/kg/injection, schedule: Q01DX009 (ip), vehicle: saline with Tween-80.
[12] abbreviates: dose: 12.5 mg/kg/injection, schedule: Q01DX009 (ip), vehicle: saline with Tween-80.
The mark [13] stands for this setting: dose: 25.0 mg/kg/injection, schedule: Q01DX009 (ip), vehicle: saline with Tween-80.

For `C1=CCONC1`, the T/C (dose: 50.0 mg/kg/injection, schedule: Q04DX003 (ip), vehicle: saline with Tween-80) is 99 % of control; the T/C under setting [1] was 104 % of control; the T/C under setting [2] is 103 % of control; the T/C under setting [3] was 100 % of control; the T/C under setting [4] was 120 % of control; the T/C (dose: 400.0 mg/kg/injection, schedule: Q04DX003 (ip), vehicle: saline) was 93 % of control.

On to `Cc1c(N)cc([N+](=O)[O-])c(C)c1[N+](=O)[O-]`, for which the T/C under setting [5] is 95 % of control and the T/C under setting [6] was 90 % of control.

In the case of `O=C(O)C1(C(=O)O)CCC2(CCCCC2)CC1`, the T/C is 98 % of control (dose: 3.12 mg/kg/injection, schedule: Q04DX003 (ip), vehicle: water); 110 % of control (dose: 6.25 mg/kg/injection, schedule: Q01DX009 (ip), vehicle: water); 102 % of control (dose: 6.25 mg/kg/injection, schedule: Q04DX003 (ip), vehicle: water); 94 % of control (dose: 12.5 mg/kg/injection, schedule: Q01DX009 (ip), vehicle: water); 102 % of control (dose: 12.5 mg/kg/injection, schedule: Q04DX003 (ip), vehicle: water); 103 % of control (dose: 25.0 mg/kg/injection, schedule: Q01DX009 (ip), vehicle: water). Further, the T/C (dose: 25.0 mg/kg/injection, schedule: Q04DX003 (ip), vehicle: water) is 101 % of control and 116 % of control; the T/C (dose: 50.0 mg/kg/injection, schedule: Q01DX009 (ip), vehicle: water) was 100 % of control; the T/C (dose: 50.0 mg/kg/injection, schedule: Q04DX003 (ip), vehicle: water) is 101 % of control and 103 % of control; the T/C (dose: 100.0 mg/kg/injection, schedule: Q04DX003 (ip), vehicle: water) is 90 % of control.

Take `O=C1C(Cl)=C(Nc2nccs2)C(=O)c2ccccc21`: the T/C by setting is: (dose: 50.0 mg/kg/injection, schedule: Q01DX005 (ip), vehicle: saline with Tween-80) 102 % of control; (dose: 100.0 mg/kg/injection, schedule: Q01DX005 (ip), vehicle: saline with Tween-80) 107 % of control; (dose: 200.0 mg/kg/injection, schedule: Q01DX005 (ip), vehicle: saline with Tween-80) 118 % of control.

With `CCOC(=O)c1ccc(OC(=O)Nc2ccccc2OC)cc1`, the T/C is, setting by setting: under setting [1], 91 % of control; under setting [3], 108 % of control; under setting [7], 108 % of control.

For `O=C1NN=C(c2ccc(Br)cc2)CS1`, the T/C under setting [5] was 100 % of control and the T/C under setting [6] is 102 % of control.

Take `O=C(Nc1cc(C(F)(F)F)ccc1Cl)c1ccccc1Cl`: the T/C is 100 % of control under setting [1], 104 % of control under setting [3] and 113 % of control under setting [7].

In the case of `Cc1cc(Cl)c2ccccc2[n+]1C`, the T/C is 96 % of control (dose: 25.0 mg/kg/injection, schedule: Q04DX003 (ip), vehicle: saline); 88 % of control (dose: 50.0 mg/kg/injection, schedule: Q04DX003 (ip), vehicle: saline); 103 % of control under setting [2].

On to `Cc1ccc2c(C)c3c(ccc4ccccc43)c[n+]2c1`, for which the T/C (dose: 1.25 mg/kg/injection, schedule: Q01DX009 (ip), vehicle: Klucel (hydroxypropylcellulose) (HPC)) is 115 % of control; the T/C (dose: 1.25 mg/kg/injection, schedule: Q01DX009 (ip), vehicle: saline) was 115 % of control; the T/C (dose: 2.5 mg/kg/injection, schedule: Q01DX009 (ip), vehicle: Klucel (hydroxypropylcellulose) (HPC)) is 120 % of control; the T/C (dose: 2.5 mg/kg/injection, schedule: Q01DX009 (ip), vehicle: saline) is 100 % of control; the T/C (dose: 2.5 mg/kg/injection, schedule: Q04DX003 (ip), vehicle: saline) was 100 % of control; the T/C (dose: 5.0 mg/kg/injection, schedule: Q04DX003 (ip), vehicle: saline) was 104 % of control. Moreover, the T/C by setting is: (dose: 10.0 mg/kg/injection, schedule: Q01DX009 (ip), vehicle: saline) 90 % of control; (dose: 10.0 mg/kg/injection, schedule: Q04DX003 (ip), vehicle: saline) 116 % of control; (dose: 20.0 mg/kg/injection, schedule: Q04DX003 (ip), vehicle: saline) 120 % of control.

Turning to `COc1cc2c(cc1OC)C(CNC(=O)/C=C/c1ccccc1)C2` (configuration not stated), the T/C was 115 % of control under setting [8], 110 % of control under setting [9] and 120 % of control under setting [10].

As for `CCOC(=O)c1c[nH]c2cc(C(F)(F)F)ccc2c1=O`, the T/C is 116 % of control (dose: 6.25 mg/kg/injection, schedule: Q01DX009 (ip), vehicle: gum acacia); 100 % of control (dose: 12.5 mg/kg/injection, schedule: Q01DX009 (ip), vehicle: gum acacia); 98 % of control (dose: 25.0 mg/kg/injection, schedule: Q01DX009 (ip), vehicle: gum acacia); 91 % of control (dose: 25.0 mg/kg/injection, schedule: Q04DX003 (ip), vehicle: gum acacia); 87 % of control (dose: 100.0 mg/kg/injection, schedule: Q04DX003 (ip), vehicle: gum acacia).

As for `CCOC(=O)C(=CN(C)c1ccc([N+](=O)[O-])cc1)C(=O)OCC`, the T/C is 100 % of control (dose: 50.0 mg/kg/injection, schedule: Q01DX009 (ip), vehicle: other); 103 % of control (dose: 100.0 mg/kg/injection, schedule: Q01DX009 (ip), vehicle: other); 109 % of control (dose: 200.0 mg/kg/injection, schedule: Q01DX009 (ip), vehicle: other).

Take `CCCCCCOP(=O)(N1CC1C)N1CC1C` (configuration not stated): the T/C runs as follows: (dose: 50.0 mg/kg/injection, schedule: Q01DX009 (ip), vehicle: saline) 122 % of control; (dose: 100.0 mg/kg/injection, schedule: Q01DX009 (ip), vehicle: saline) 150 % of control and 182 % of control; (dose: 200.0 mg/kg/injection, schedule: Q01DX009 (ip), vehicle: saline) 86 % of control.

As for `CC(=O)C(=O)C(C)=O`, the T/C by setting is: under setting [8], 105 % of control; under setting [9], 100 % of control; under setting [10], 105 % of control.

Consider `COc1cc(Br)c(/C=C(\C)[N+](=O)[O-])cc1OC`, for which the T/C by setting is: (dose: 100.0 mg/kg/injection, schedule: Q01DX001 (ip), vehicle: saline with Tween-80) 109 % of control; (dose: 200.0 mg/kg/injection, schedule: Q01DX001 (ip), vehicle: saline with Tween-80) 93 % of control.

For `CC(c1ccccc1)c1ccc(O)cc1` (configuration not stated), the T/C reads like this: under setting [5], 110 % of control; under setting [6], 110 % of control; under setting [2], 100 % of control; under setting [11], 110 % of control; under setting [4], 91 % of control.

For `Cc1cc(O)c(C(c2ccccn2)c2c(O)cc(C)[nH]c2=O)c(=O)[nH]1`, the T/C under setting [12] was 95 % of control, the T/C under setting [13] is 90 % of control and the T/C under setting [5] is 100 % of control.

For the molecule `O=C(O)C(CSC(c1ccccc1)(c1ccccc1)c1ccccc1)N=Cc1ccccc1O` (configuration not stated), the T/C is 159 % of control under setting [5]; 104 % of control (dose: 66.0 mg/kg/injection, schedule: Q04DX003 (ip), vehicle: saline with Tween-80); 186 % of control under setting [6]; 190 % of control under setting [1]; 177 % of control (dose: 150.0 mg/kg/injection, schedule: Q04DX003 (ip), vehicle: saline with Tween-80); 272 % of control under setting [11].

Take `Nc1ccc(/C=C/c2ccnc3ccccc23)cc1`: the T/C (dose: 3.13 mg/kg/injection, schedule: Q04DX003 (ip), vehicle: saline with Tween-80) was 109 % of control; the T/C (dose: 6.25 mg/kg/injection, schedule: Q04DX003 (ip), vehicle: saline with Tween-80) was 109 % of control; the T/C under setting [12] was 112 % of control; the T/C (dose: 12.5 mg/kg/injection, schedule: Q04DX003 (ip), vehicle: saline with Tween-80) was 109 % of control; the T/C under setting [13] was 91 % of control.

With `CSc1nc(Cl)c(Cl)c(C(F)(F)F)n1`, the T/C (dose: 6.25 mg/kg/injection, schedule: Q01DX005 (ip), vehicle: saline) is 110 % of control; the T/C (dose: 12.5 mg/kg/injection, schedule: Q01DX005 (ip), vehicle: saline) is 109 % of control; the T/C (dose: 25.0 mg/kg/injection, schedule: Q01DX005 (ip), vehicle: saline) is 115 % of control.
